Where two headings read alike, the source gives them in different places.
Target: human PDE4D catalytic domain (Homo sapiens (Human), UniProt Q08499)
Assay: PDE4 Assay (TR-FRET, FAM-cAMP cleavage)
Type: biochemical
Settings: read-out: PDE4 IC50 range
Summary of the method: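 PDE4D catalytic domain (S380-L740) incubated briefly with unlabelled cAMP plus FAM-cAMP and titrated compound. Reaction stopped with binding buffer holding metal-ion nanoparticles that bind AMP phospho groups and Tb donor, and AMP formation read by TR-FRET. IC50 versus controls, reported as ranges (nM).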

[1] = human PDE4D catalytic domain (UniProt Q08499 [S380-L740]), 50% inhibition of substrate cleavage

Chain of human PDE4D catalytic domain (Q08499 380-740): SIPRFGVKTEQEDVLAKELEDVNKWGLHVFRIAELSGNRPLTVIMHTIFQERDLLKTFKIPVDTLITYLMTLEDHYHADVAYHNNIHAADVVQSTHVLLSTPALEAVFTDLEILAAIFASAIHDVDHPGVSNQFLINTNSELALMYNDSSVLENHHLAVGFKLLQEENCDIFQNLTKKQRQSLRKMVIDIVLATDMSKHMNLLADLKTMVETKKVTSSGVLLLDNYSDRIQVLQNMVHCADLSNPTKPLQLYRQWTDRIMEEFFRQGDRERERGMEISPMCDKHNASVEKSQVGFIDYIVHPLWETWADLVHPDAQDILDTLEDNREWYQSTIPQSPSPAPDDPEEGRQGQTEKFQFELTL

In the case of `CCn1nc(C[C@@H](C)COC(=O)c2cccc(OC)c2)c2c1C(=O)NCC1(CCOCC1)C2` [Example 150, [(2R)-3-(1-ethyl-8-oxo-spiro[6,7-dihydro-4H-pyrazolo[3,4-c]azepine-5,4′-tetrahydropyran]-3-yl)-2-methyl-propyl] 3-methoxybenzoate], the IC50 [1] is reported as < 100 nM.
With `CCn1nc(C[C@@H](C)COC(=O)c2ccc(C(N)=O)cc2)c2c1C(=O)NCC1(CCOCC1)C2` [Example 169, [(2R)-3-(1-ethyl-8-oxo-spiro[6,7-dihydro-4H-pyrazolo[3,4-c]azepine-5,4′-tetrahydropyran]-3-yl)-2-methyl-propyl] 4-carbamoylbenzoate] the IC50 [1] was < 100 nM.
In the case of `CCn1nc(C[C@@H](C)COC(=O)c2cccc(S(=O)(=O)CC)c2)c2c1C(=O)NCC1(CCOCC1)C2` [Example 156, [(2R)-3-(1-ethyl-8-oxo-spiro[6,7-dihydro-4H-pyrazolo[3,4-c]azepine-5,4′-tetrahydropyran]-3-yl)-2-methyl-propyl] 3-ethylsulfonylbenzoate], the IC50 [1] is reported as < 100 nM.
`CCn1nc(C[C@@H](C)COC(=O)c2ccc(S(=O)(=O)N3CCOCC3)cc2)c2c1C(=O)NCC1(CCOCC1)C2` [Example 165, [(2R)-3-(1-ethyl-8-oxo-spiro[6,7-dihydro-4H-pyrazolo[3,4-c]azepine-5,4′-tetrahydropyran]-3-yl)-2-methyl-propyl] 4-morpholinosulfonylbenzoate] was tested, and the IC50 [1] was < 100 nM.
In the case of `CCn1nc(C[C@@H](C)COC(=O)c2ccc(F)cc2)c2c1C(=O)NCC1(CCOCC1)C2` [Example 145, [(2R)-3-(1-ethyl-8-oxo-spiro[6,7-dihydro-4H-pyrazolo[3,4-c]azepine-5,4′-tetrahydropyran]-3-yl)-2-methyl-propyl] 4-fluorobenzoate], the IC50 [1] is reported as < 100 nM.
For `CCn1nc(CCCOC(=O)c2ccc(Cl)cc2C(F)(F)F)c2c1C(=O)NCC1(CCOCC1)C2` [Example 84, 3-(1-ethyl-8-oxo-spiro[6,7-dihydro-4H-pyrazolo[3,4-c]azepine-5,4′-tetrahydropyran]-3-yl)propyl 4-chloro-2-(trifluoromethyl)benzoate], the IC50 [1] was < 100 nM.
With `CCn1nc(CC(C)(C)COC(=O)c2cnc(C)nc2)c2c1C(=O)NCC1(CCOCC1)C2` [Example 308, [3-(1-ethyl-8-oxo-spiro[6,7-dihydro-4H-pyrazolo[3,4-c]azepine-5,4′-tetrahydropyran]-3-yl)-2,2-dimethyl-propyl] 2-methylpyrimidine-5-carboxylate] the IC50 (Table 17, Examples 297-316) was < 100 nM.
For `CCn1nc(CCCOC(=O)c2ccc(F)c(F)c2)c2c1C(=O)NCC1(CCOCC1)C2` [Example 23, 3-(1-ethyl-8-oxo-spiro[6,7-dihydro-4H-pyrazolo[3,4-c]azepine-5,4′-tetrahydropyran]-3-yl)propyl 3,4-difluorobenzoate], the IC50 [1] was < 100 nM.
For `CCn1nc(CCCOC(=O)c2ccc(C(=O)N3CCN(C)CC3)cc2)c2c1C(=O)NCC1(CCOCC1)C2` [Example 110, 3-(1-ethyl-8-oxo-spiro[6,7-dihydro-4H-pyrazolo[3,4-c]azepine-5,4′-tetrahydropyran]-3-yl)propyl 4-(4-methylpiperazine-1-carbonyl)benzoate], the IC50 [1] was < 100 nM.
Work on `CCn1nc(CC(C)(C)COC(=O)C2CCN(C)CC2)c2c1C(=O)NCC1(CCOCC1)C2` [Example 312, [3-(1-ethyl-8-oxo-spiro[6,7-dihydro-4H-pyrazolo[3,4-c]azepine-5,4′-tetrahydropyran]-3-yl)-2,2-dimethyl-propyl] 1-methylpiperidine-4-carboxylate] yielded an IC50 (Table 17, Examples 297-316) of 100 to 500 nM.
In the case of `CCn1nc(CCCOC(=O)c2cccc(C(=O)N3CCN(C(C)=O)CC3)c2)c2c1C(=O)NCC1(CCOCC1)C2` [Example 120, 3-(1-ethyl-8-oxo-spiro[6,7-dihydro-4H-pyrazolo[3,4-c]azepine-5,4′-tetrahydropyran]-3-yl)propyl 3-(4-acetylpiperazine-1-carbonyl)benzoate], the IC50 [1] is reported as < 100 nM.
In the case of `CCn1nc(CCCOC(=O)C2CCN(C(=O)OC)CC2)c2c1C(=O)NCC1(CCOCC1)C2` [Example 263, [3-(1-ethyl-8-oxo-spiro[6,7-dihydro-4H-pyrazolo[3,4-c]azepine-5,4′-tetrahydro-pyran]-3-yl)propyl] 1-methoxy-carbonylpiperidine-4-carboxylate], the IC50 [1] is reported as < 100 nM.
With `CCn1nc(CCCOC(=O)c2cc(F)ccc2Cl)c2c1C(=O)NCC1(CCOCC1)C2` [Example 46, 3-(1-ethyl-8-oxo-spiro[6,7-dihydro-4H-pyrazolo[3,4-c]azepine-5,4′-tetrahydropyran]-3-yl)propyl 2-chloro-5-fluoro-benzoate] the IC50 [1] was < 100 nM.
For `CCn1nc(CCCCOC(=O)c2coc(C)n2)c2c1C(=O)NCC1(CCOCC1)C2` [Example 266, 4-(1-ethyl-8-oxo-spiro[6,7-dihydro-4H-pyrazolo[3,4-c]azepine-5,4′-tetrahydropyran]-3-yl)butyl 2-methyloxazole-4-carboxylate], the IC50 [1] was < 100 nM.
`CCn1nc(CCCOC(=O)c2cccc(Cl)c2F)c2c1C(=O)NCC1(CCOCC1)C2` [Example 50, 3-(1-ethyl-8-oxo-spiro[6,7-dihydro-4H-pyrazolo[3,4-c]azepine-5,4′-tetrahydropyran]-3-yl)propyl 3-chloro-2-fluoro-benzoate] was tested, and the IC50 [1] was < 100 nM.
With `CCn1nc(CCCCOC(=O)c2ccc(S(=O)(=O)NC)cc2)c2c1C(=O)NCC1(CCOCC1)C2` [Example 131, 4-(1-ethyl-8-oxo-spiro[6,7-dihydro-4H-pyrazolo[3,4-c]azepine-5,4′-tetrahydropyran]-3-yl)butyl 4-(methyl-sulfamoyl)benzoate] the IC50 [1] was < 100 nM.
For `CCn1nc(CCCOC(=O)c2cccc(OC)c2Cl)c2c1C(=O)NCC1(CCOCC1)C2` [Example 57, 3-(1-ethyl-8-oxo-spiro[6,7-dihydro-4H-pyrazolo[3,4-c]azepine-5,4′-tetrahydropyran]-3-yl)propyl 2-chloro-3-methoxy-benzoate], the IC50 [1] was < 100 nM.
In the case of `CCn1nc(CCCOC(=O)c2ccc(S(N)(=O)=O)cc2)c2c1C(=O)NCC1(CCOCC1)C2` [Example 65, 3-(1-ethyl-8-oxo-spiro[6,7-dihydro-4H-pyrazolo[3,4-c]azepine-5,4′-tetrahydropyran]-3-yl)propyl 4-sulfamoylbenzoate], the IC50 [1] is reported as < 100 nM.
For `CCn1nc(CC(C)(C)COC(=O)c2ccc(S(=O)(=O)C(C)C)cc2)c2c1C(=O)NCC1(CCOCC1)C2` [Example 207, [3-(1-ethyl-8-oxo-spiro[6,7-dihydro-4H-pyrazolo[3,4-c]azepine-5,4′-tetrahydropyran]-3-yl)-2,2-dimethyl-propyl] 4-isopropylsulfonylbenzoate], the IC50 [1] was < 100 nM.
`CCn1nc(CCCOC(=O)c2coc(C)n2)c2c1C(=O)NCC1(CCOCC1)C2` [Example 240, 3-(1-ethyl-8-oxo-spiro[6,7-dihydro-4H-pyrazolo[3,4-c]azepine-5,4′-tetrahydropyran]-3-yl)propyl 2-methyloxazole-4-carboxylate] was tested, and the IC50 [1] was < 100 nM.
For `CCn1nc(CCCOC(=O)c2cccc(F)c2C)c2c1C(=O)NCC1(CCOCC1)C2` [Example 21, 3-(1-ethyl-8-oxo-spiro[6,7-dihydro-4H-pyrazolo[3,4-c]azepine-5,4′-tetrahydropyran]-3-yl)propyl 3-fluoro-2-methyl-benzoate], the IC50 [1] was < 100 nM.
In the case of `CCn1nc(CCCOC(=O)c2ccc(C(=O)NC)cc2)c2c1C(=O)NCC1(CCOCC1)C2` [Example 105, 3-(1-ethyl-8-oxo-spiro[6,7-dihydro-4H-pyrazolo[3,4-c]azepine-5,4′-tetrahydro-pyran]-3-yl)propyl 4-(methylcarbamoyl)benzoate], the IC50 [1] is reported as < 100 nM.
`CCn1nc(CCCOC(=O)c2cccc(S(=O)(=O)N3CCN(C(C)=O)CC3)c2)c2c1C(=O)NCC1(CCOCC1)C2` [Example 101, 3-(1-ethyl-8-oxo-spiro[6,7-dihydro-4H-pyrazolo[3,4-c]azepine-5,4′-tetrahydropyran]-3-yl)propyl 3-(4-acetylpiperazin-1-yl)sulfonylbenzoate] was tested, and the IC50 [1] was < 100 nM.
`CCn1nc(CCCOC(=O)c2c(F)cccc2F)c2c1C(=O)NCC1(CCOCC1)C2` [Example 26, 3-(1-ethyl-8-oxo-spiro[6,7-dihydro-4H-pyrazolo[3,4-c]azepine-5,4′-tetrahydropyran]-3-yl)propyl 2,6-difluorobenzoate] was tested, and the IC50 [1] was < 100 nM.
For `CCn1nc(CC(C)(C)COC(=O)c2cccc(C(=O)N3CCOCC3)c2)c2c1C(=O)NCC1(CCOCC1)C2` [Example 232, [3-(1-ethyl-8-oxo-spiro[6,7-dihydro-4H-pyrazolo[3,4-c]azepine-5,4′-tetrahydro-pyran]-3-yl)-2,2-dimethyl-propyl] 3-(morpholine-4-carbonyl)benzoate], the IC50 [1] was < 100 nM.
`CCn1nc(CCCOC(=O)c2ccc(OC)cc2)c2c1C(=O)NCC1(CCOCC1)C2` [Example 16, 3-(1-ethyl-8-oxo-spiro[6,7-dihydro-4H-pyrazolo[3,4-c]azepine-5,4′-tetrahydropyran]-3-yl)propyl 4-methoxybenzoate] was tested, and the IC50 [1] was < 100 nM.
`CCn1nc(CCCOC(=O)c2ccc(F)c(Cl)c2)c2c1C(=O)NCC1(CCOCC1)C2` [Example 54, 3-(1-ethyl-8-oxo-spiro[6,7-dihydro-4H-pyrazolo[3,4-c]azepine-5,4′-tetrahydropyran]-3-yl)propyl 3-chloro-4-fluoro-benzoate] was tested, and the IC50 [1] was < 100 nM.
With `CCn1nc(C[C@@H](C)COC(=O)c2cccc(S(=O)(=O)N3CCN(C(C)=O)CC3)c2)c2c1C(=O)NCC1(CCOCC1)C2` [Example 166, [(2R)-3-(1-ethyl-8-oxo-spiro[6,7-dihydro-4H-pyrazolo[3,4-c]azepine-5,4′-tetrahydropyran]-3-yl)-2-methyl-propyl] 3-(4-acetylpiperazin-1-yl)sulfonylbenzoate] the IC50 [1] was < 100 nM.
With `CCn1nc(CCCOC(=O)C2CCSCC2)c2c1C(=O)NCC1(CCOCC1)C2` [Example 257, 3-(1-ethyl-8-oxo-spiro[6,7-dihydro-4H-pyrazolo[3,4-c]azepine-5,4′-tetrahydro-pyran]-3-yl)propyl tetrahydro-thiopyran-4-carboxylate] the IC50 [1] was < 100 nM.

— patent publication US10793580B2, “Substituted pyrazoloazepin-8-ones and their use as phosphodiesterase inhibitors” (LEO Pharma A/S, priority 2016, dated 2020)
